The assay relates to M. tuberculosis H37Rv growth inhibition, 7H9 media. The assay is described as follows: M. tuberculosis growth inhibition, HTS (AID 449762).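 As to all read-outs here: bacterial growth assessed after seven days of incubation.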 The conditions noted are these: for IC90: measured here: IC90 growth inhibition.

This is an account of results in PubChem BioAssay AID449762 (Southern Research Specialized Biocontainment Screening …, 2010).

Broadly, the IC50 is the concentration that inhibits the measured activity by half. Usually IC90 stands for the concentration needed for an effect of 90%.

Inconclusive results are not listed. Some results are limits rather than exact numbers.

Turning to `CCCCNc1c(-c2ccc(SC3CCCCC3)c(OC)c2)nc2ccc(C)cn12`, the IC50 was 11.4 µM and the IC90 amounted to 12.8 µM.

`Cc1ccc(/C(N)=N/OC(=O)N2c3ccccc3Sc3ccccc32)cc1`: the IC50 was 52.4 µM and the IC90 was above 100 µM.

`CCOC(=O)c1c(CC(C)C)csc1NC(=O)CCl`: the IC50 is below 0.2 µM and the IC90 is 7.5 µM.

`CC(C)(C)c1nn(-c2ccccc2)c2[nH]c(=O)c(CNCc3ccc4c(c3)OCO4)cc12`: the IC50 was 20.4 µM and the IC90 is 27.3 µM.

Regarding `Cc1ccc(C(=O)N2N=C(c3ccc(NS(C)(=O)=O)cc3)CC2c2cccs2)cc1` (stereo not given), the IC50 is 12.4 µM and the IC90 worked out at 21.2 µM.

In the case of `Clc1ccc(C(Cn2ccnc2)OCc2csc3c(Cl)cccc23)c(Cl)c1` (stereo not given), the IC50 is 15.8 µM and the IC90 came out at 24.8 µM.

On to `CCc1nnc(N/N=C/c2cc(C)c(C)cc2C)n1N`, for which the IC50 is 7.24 µM and the IC90 worked out at 16 µM.

Consider `CCc1ccc2c(c1)/C(=C/C(=O)c1cccs1)C(=O)N2`, for which the IC50 is 1.06 µM and the IC90 was determined as 3.19 µM.

With `CC(=O)C1=C(C)NC(SCC(=O)c2ccc(F)cc2)=C(C#N)C1c1ccco1` (stereo not given), the IC50 was 46.1 µM and the IC90 came out at 51 µM.

`CC(=O)c1cccc2c(O)c(C3=Nc4ccccc4C3=O)[nH]c12`: the IC50 is 11.7 µM and the IC90 is 13.2 µM.

With `Brc1ccc(N/N=C(/N=Nc2nn[nH]n2)c2ccccc2)cc1`, the IC50 is 14.2 µM and the IC90 turned out to be 22.1 µM.

On to `CC(=O)c1ccc(Sc2nnnn2-c2ccccc2)c([N+](=O)[O-])c1`, for which the IC50 is 4.48 µM and the IC90 worked out at 13.3 µM.

Turning to `COc1ccc(-n2cc(CNCCc3cscn3)c(-c3ccccc3Cl)n2)cc1`, the IC50 is 25.6 µM and the IC90 is 29.7 µM.

Take `O=[N+]([O-])c1cc([N+](=O)[O-])c2cc3ccccc3nc2c1`: the IC50 was below 0.2 µM and the IC90 turned out to be 0.81 µM.

As for `COc1ccc(C(=O)C[n+]2ccc3c(c2)nc(-c2cc(OC)c(OC)cc2OC)n3C)cc1`, the IC50 is 10.5 µM and the IC90 came out at 13.4 µM.

For `O=c1c(Cl)nc2cc(Cl)ccc2n1CCNc1ncc(C(F)(F)F)cc1Cl`, the IC50 was 1.3 µM and the IC90 turned out to be 3.89 µM.

Consider `Cn1nc(-c2ccccc2F)c2cc(C(=O)Nc3ccc4c(c3)OCCO4)sc21`, for which the IC50 is 17.7 µM and the IC90 is 35.5 µM.

Regarding `FC(F)(Cl)c1nnc2ccc(Cl)nn12`, the IC50 was 0.26 µM and the IC90 stood at 0.86 µM.

Regarding `CC1(C)Cc2ccccc2C2=NNC(=O)C2=N1`, the IC50 was 11.2 µM and the IC90 was 21 µM.

Turning to `Cn1cnnc1SCc1ccc(C(=O)N=Nc2c(O)n(Cc3ccc(Cl)cc3)c3ccccc23)cc1`, the IC50 is 2.97 µM and the IC90 was determined as 3.4 µM.

On to `CCCc1cc(C(N)=S)ccn1`, for which the IC50 was 6.61 µM and the IC90 was above 100 µM.

For the compound `CCCCNC(=S)N/N=C/c1cccc(OCC)c1O`, the IC50 is 6.01 µM and the IC90 is 6.79 µM.

Take `CCCCCCCCNC(C)C(O)c1ccc(SC(C)C)cc1` (stereo not given): the IC50 is 22.5 µM and the IC90 stood at 31.8 µM.

As for `CCc1c(C)sc2nc3c(C(=O)N4CCOCC4)cc(C(=O)c4cc(F)ccc4O)cn3c(=O)c12`, the IC50 was 47.3 µM and the IC90 was above 100 µM.

`CC(C)C[C@H]1C(=O)N2CCC[C@H]2[C@]2(O)O[C@](NC(=O)C3C=C4c5cccc6[nH]c(Br)c(c56)C[C@H]4N(C)C3)(C(C)C)C(=O)N12` (stereo not given in full) displayed an IC90 above 100 µM.

For `C=CCNC(=O)c1onc(CCl)c1C(=O)OC`, the IC50 was 1.66 µM and the IC90 was 5.93 µM.

With `CCOc1cc(C=O)cc(N=Nc2cccc([N+](=O)[O-])c2)c1O`, the IC50 is 3.98 µM and the IC90 was determined as 11.6 µM.

With `O=C1CN(CC(=O)N2CCCCC2)c2ccccc2O1`, the IC50 was 23.6 µM and the IC90 was 27.4 µM.

Consider `O=C(NC(=S)N1CCc2ccccc21)c1ccc(Br)o1`, for which the IC50 is 5.63 µM and the IC90 was 9.62 µM.

On to `O=C(Nc1nnc(C2=COCCO2)o1)c1ccc(Cc2ccccc2)cc1`, for which the IC50 is 3.26 µM and the IC90 worked out at 9.81 µM.

In the case of `c1ccc(-c2cn3c(n2)CCc2ccc4cccnc4c2-3)cc1`, the IC50 is 8.12 µM and the IC90 worked out at 41.2 µM.

For `Cc1cc(N/N=C2/CCCc3ccccc32)nc2ccccc12`, the IC50 is 31.7 µM and the IC90 amounted to 37.9 µM.

On to `Cc1ccc2nc(/C(C#N)=C/c3cn[nH]c3-c3ccc(F)cc3)[nH]c2c1`, for which the IC50 is 20.9 µM and the IC90 is above 100 µM.

Turning to `Oc1ccccc1N=Cc1ccc[nH]1`, the IC50 is 3.83 µM and the IC90 was determined as 7.96 µM.

`CCCc1cnc(NCCNCC(O)COc2ccc(Cl)c(Cl)c2)nc1` (stereo not given): the IC50 is 17.1 µM and the IC90 turned out to be 22.1 µM.

Regarding `O=C(c1ccc(CNc2c(N3CCCC3)c(=O)c2=O)cc1)N1CC=C(c2ccccc2)CC1`, the IC50 is 0.76 µM and the IC90 was determined as 0.87 µM.

Regarding `Cc1ccc(C(C)C)c(OCC(=O)OCc2c(C)noc2C)c1`, the IC50 is 2.86 µM and the IC90 is 3.29 µM.

Regarding `O=[N+]([O-])c1cccnc1N1CCC(c2cc(-c3cccc(C(F)(F)F)c3)n[nH]2)CC1`, the IC50 was 23.1 µM and the IC90 came to 26.1 µM.

For the compound `O=C1Nc2ccc(Br)cc2C12NNc1ccccc1O2` (stereo not given), the IC50 was 23.3 µM and the IC90 was 43.6 µM.

`CCOC(=O)N1CCC(N2Cc3cccc(C(=O)Nc4ccc(N(CC)CC)cc4C)c3C2=O)CC1`: the IC50 is 45.1 µM and the IC90 stood at 50.5 µM.

`O=C(Cc1ccccc1)N/N=C/c1ccc2cccc(O)c2n1`: the IC50 is 7.67 µM and the IC90 amounted to 12.3 µM.

As to `COc1ccc(-c2oc3cccnc3c2/C=C/c2ccc(OC)c(OC)c2)cc1`, the IC50 is 51.3 µM and the IC90 is above 100 µM.

Turning to `Cc1cc2[nH]c3c(c[n+](C)c4ccccc34)c2cc1C`, the IC50 is 8.57 µM and the IC90 came out at 13.1 µM.

As for `CN(CCCCCCCCCCN(C)C(=O)Oc1cccc([N+](C)(C)C)c1)C(=O)Oc1cccc([N+](C)(C)C)c1`, the IC50 was 1.49 µM and the IC90 is 4.04 µM.

As to `CC1(C)CC(NC(=O)c2ccc(Cl)c(S(=O)(=O)N(Cc3ccccc3)c3ccccc3)c2)CC(C)(C)N1`, the IC50 is 24.5 µM and the IC90 came to 27.9 µM.

On to `CC(C)(C)c1ccc(C(=O)CSc2n[nH]c(=O)[nH]c2=O)cc1`, for which the IC50 is 7.69 µM and the IC90 is 25.4 µM.

For `CCOc1ccc(NCc2cccn2-c2nnc(N3CCC(C(=O)NCCCN4C(C)CCCC4C)CC3)s2)cc1` (stereo not given), the IC50 was 71.9 µM and the IC90 was determined as 90.9 µM.

In the case of `COC(=O)c1ccc(N/C(C)=C/C(=O)c2ccc(C)o2)cc1`, the IC50 was 97.4 µM and the 90% effect concentration (IC90) was above 100 µM.

As for `CCCSc1nn2c(=O)c3ccccc3nc2s1`, the IC50 was 8.34 µM and the IC90 is 25.2 µM.

Regarding `CCN1CCN(Cc2ccc(NC(=O)c3ccc(C)c(/C=C/c4cnc(Nc5cc(N6CCNCC6)nc(C)n5)cn4)c3)cc2C(F)(F)F)CC1`, the IC50 was 35.1 µM and the IC90 came out at 57.9 µM.

As for `Cc1nn(-c2ccccn2)c2c1-c1nc(N3CCOCC3)ncc1CC2`, the IC50 is 12.9 µM and the IC90 was above 100 µM.

Turning to `COc1ccc2cc1Oc1ccc(cc1)C[C@H]1c3c(cc(OC)c4c3Oc3c(ccc5c3[C@H](C2)N(C)CC5)O4)CCN1C`, the IC50 is 4.9 µM and the IC90 came to 6.44 µM.

Regarding `C=CCN(CC(=O)c1sc(C(=O)OCC)nc1C)c1cccc(Br)c1`, the IC50 was 19.4 µM and the IC90 was 28.8 µM.

With `CC(C)(C)C1CCc2sc(-c3nnc(CCl)o3)cc2C1` (stereo not given), the IC50 is below 0.2 µM and the IC90 was determined as 5.54 µM.

As to `S=C(NCCc1ccccc1)NN=C1CCCCCC1`, the IC50 was 23.1 µM and the IC90 worked out at 26.6 µM.

For `COc1ccc(NC(=O)NC(C)C2CC3CCC2C3)cc1` (stereo not given), the IC50 is 23.6 µM and the IC90 is 27.1 µM.

With `Cc1ccc2nc(/N=C(\N)NC(=O)NC3CCCCC3)nc(C)c2c1`, the IC50 was 2.22 µM and the IC90 came to 8.85 µM.

In turn, `Cn1ccnc1C(O)c1cc(C(C)(C)C)c(O)c(C(C)(C)C)c1` (stereo not given) had an IC90 above 100 µM.

`CN(CC(=O)Nc1ccccc1Br)C(=O)c1cccnc1Nc1cccc(C(F)(F)F)c1`: the IC50 is 32 µM and the IC90 was 40.7 µM.

For `O=C(Nc1nc(-c2cc(Cl)sc2Cl)cs1)c1cccs1`, the IC50 was 29.3 µM and the IC90 was above 100 µM.

Regarding `CC(C)NC(=O)c1onc(CSc2ccc(F)c(F)c2)c1C(=O)O`, the IC50 was 11 µM and the IC90 amounted to 18.9 µM.

With `Cn1c2ccccc2c2cc(C(=O)NNC(=O)CCl)sc21`, the IC50 was 1.72 µM and the IC90 was 3.91 µM.

Consider `C/C(=N\N=C(/N)SC1CC(=O)N(c2ccc(Cl)cc2)C1=O)c1cccs1` (stereo not given), for which the IC50 is 33 µM and the IC90 was above 100 µM.

As for `CCCn1c(=N)n(CC(=O)c2ccc(OCC(=O)OC)cc2)c2ccccc21`, the IC50 was 11.1 µM and the IC90 amounted to 43.6 µM.

On to `CCOC(=O)CSc1nnc(-c2ccc(S(=O)(=O)NCc3cccs3)cc2)o1`, for which the IC50 was 2.55 µM and the IC90 is 4.55 µM.

`O=S(=O)(Nc1ccn(-c2ccccc2)n1)c1ccc(Br)cc1`: the IC50 was 95.4 µM and the IC90 was above 100 µM.

On to `CSCCC(=O)N1CCCC(CNC(=O)c2ccc(-c3ccccc3)cc2)C1` (stereo not given), for which the IC50 is 39.1 µM and the IC90 was determined as 87.8 µM.

Take `CCOC(=O)Cc1csc(NC(=O)c2c(O)c3c(n(CC(C)C)c2=O)CCCC3)n1`: the IC50 is 5.19 µM and the IC90 came to 72 µM.

Consider `CCCC(/C=C/c1ccc(OC(C)=O)cc1)=C1/c2ccccc2C(=O)N1c1ccccc1`, for which the IC50 was 8.07 µM and the IC90 is 16.1 µM.

For `CCn1cc(Br)c(C(=O)Nc2ccc(C(=O)OC(C)C)cc2)n1`, the IC50 was 35.5 µM and the IC90 worked out at 57.8 µM.

As for `O=C(/C=C/c1ccccc1)N1CCN(CCN2C(=O)c3cccc4cccc(c34)C2=O)CC1`, the IC50 was 1.95 µM and the IC90 is 3.87 µM.
